Results reported in patent US11629154B2, “Tetrahydropyranooxazine derivatives having selective BACE1 inhibitory activity” (SHIONOGI & CO., LTD., priority 2018, dated 2023).

Biological target: recombinant BACE1 protein (Homo sapiens (Human), UniProt P56817)
Test: BACE1 biochemical FRET based assay
Conditions: BACE1 versus BACE2
From the text: (1) BACE1 Biochemical FRET Based Assay
(§1) This assay is a Fluorescence Resonance Energy Transfer Assay (FRET) based assay. The substrate for this assay is an APP derived 13 amino acids peptide that contains the ‘Swedish’ Lys-Met/Asn-Leu mutation of the amyloid precursor protein (APP) beta-site secretase cleavage site. This substrate also contains two fluorophores: (7-methoxycoumarin-4-yl) acetic acid (Mca) is a fluorescent donor with excitation wavelength at 320 nm and emission at 405 nm and 2,4-dinitrophenol (Dnp) is a proprietary quencher acceptor. […] Upon cleavage by BACE1, the fluorophore Mca is separated from the quenching group Dnp, restoring the full fluorescence yield of the donor. The increase in fluorescence is linearly related to the rate of proteolysis.
Briefly in a 384-well format recombinant BACE1 protein in a final concentration of 0.04 μg/mL was incubated for 450 minutes at room temperature with […] substrate in incubation buffer (final concentrations: 33.3 mM Citrate buffer pH 5.0, 0.033% PEG, 3% DMSO) in the absence or presence of compound. Next the amount of proteolysis was directly measured by fluorescence measurement at T=0′-120′ and T=450′ (excitation at 320 nm and emission at 405 nm). Results were expressed in RFU (Relative Fluorescence Units), as difference between T450 and Tx (Tx is chosen depending on the reaction speed between 0 and 120 minutes).
(§2) A best-fit curve was fitted by a minimum sum of squares method to the plot of % Controlmin versus compound concentration. From this an IC50 value (inhibitory concentration causing 50% inhibition of activity) can be obtained.
(§3) LC=Median of the low control values
(§4) =Low control: Reaction without enzyme
(§5) HC=Median of the High control values
=High Control: Reaction with enzyme % Effect=100−[(sample−LC)/(HC−LC)*100] % Control=(sample/HC)*100 % Controlmin=(sample−LC)/(HC−LC)*100

Sequence of recombinant BACE1 protein (P56817 46-501): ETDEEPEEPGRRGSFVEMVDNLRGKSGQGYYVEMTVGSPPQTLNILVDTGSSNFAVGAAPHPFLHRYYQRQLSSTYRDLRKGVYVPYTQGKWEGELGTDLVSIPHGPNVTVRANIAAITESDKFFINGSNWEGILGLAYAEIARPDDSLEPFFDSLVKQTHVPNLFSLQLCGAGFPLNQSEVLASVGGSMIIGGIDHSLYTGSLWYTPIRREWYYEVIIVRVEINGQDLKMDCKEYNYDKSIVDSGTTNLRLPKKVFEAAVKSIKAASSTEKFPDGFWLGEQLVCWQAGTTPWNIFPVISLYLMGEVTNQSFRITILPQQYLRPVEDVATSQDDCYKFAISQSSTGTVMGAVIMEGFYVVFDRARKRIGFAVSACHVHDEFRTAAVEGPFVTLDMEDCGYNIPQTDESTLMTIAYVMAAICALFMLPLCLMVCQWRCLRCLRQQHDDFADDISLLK

Row | Structure (SMILES) | Selectivity
1 | NC1=N[C@](CF)(c2cc(NC(=O)c3cnc(C(F)(F)F)cn3)ccc2F)[C@H]2COCC[C@H]2O1 [Compound I-107] | 63.1
2 | C[C@H]1COC[C@H]2[C@@H]1OC(N)=N[C@]2(CF)c1cc(NC(=O)c2cnc(OCF)cn2)ccc1F [Compound I-074] | 36.3
3 | NC1=N[C@](CF)(c2cc(NC(=O)c3ncc(C(F)(F)F)cc3Cl)ccc2F)[C@H]2COCC[C@H]2O1 [Compound I-108] | 10.0
4 | C[C@@H]1C[C@H]2OC(N)=N[C@](CF)(c3cc(NC(=O)c4ncc(C(F)(F)F)cc4Cl)ccc3F)[C@H]2CO1 [Compound I-101] | 14.1
5 | Cc1cc(C(F)(F)F)cnc1C(=O)Nc1ccc(F)c([C@@]2(CF)N=C(N)O[C@@H]3C[C@@H](C)OC[C@@H]32)c1 [Compound I-100] | 15.5
6 | C[C@@H]1COC[C@H]2[C@@H]1OC(N)=N[C@]2(CF)c1cc(NC(=O)c2cnc(OCF)cn2)ccc1F [Compound I-075] | 27.5

Next, values leading:

Row | Selectivity | Structure (SMILES)
7 | 28.8 | NC1=N[C@](CF)(c2cc(NC(=O)c3cnc(C(F)(F)F)cn3)ccc2F)[C@H]2COCC[C@H]2O1 [Compound I-102]
8 | 44.7 | NC1=N[C@](CF)(c2cc(NC(=O)c3cnc(OCF)cn3)ccc2F)[C@H]2COC3(CC3)C[C@H]2O1 [II-1]
9 | 53.7 | C[C@@H]1C[C@H]2OC(N)=N[C@](CF)(c3cc(NC(=O)c4cnc(OCF)cn4)cc(F)c3F)[C@H]2CO1 [Compound I-061]
10 | 24.5 | COc1cnc(C(=O)Nc2ccc(Cl)c([C@@]3(CF)N=C(N)O[C@@H]4C[C@@H](C)OC[C@@H]43)c2)cn1 [Compound I-068]
11 | 53.7 | NC1=N[C@](CF)(c2cc(NC(=O)c3cnc(OCC4(F)CC4)cn3)ccc2F)[C@H]2COCC[C@H]2O1 [Compound I-086]
12 | 25.1 | NC1=N[C@](CF)(c2cc(NC(=O)c3ccc(OC(F)F)cn3)ccc2F)[C@H]2COCC[C@H]2O1 [Compound I-078]
13 | 223 | NC1=N[C@](CF)(c2cc(NC(=O)c3cnc(OCC(F)(F)F)cn3)ccc2F)[C@H]2COCC[C@H]2O1 [Compound I-077]

Same assay, conditions: FRET, pH 5.0

Row | Structure (SMILES) | IC50
14 | NC1=N[C@](CF)(c2cc(NC(=O)c3cnc(C(F)(F)F)cn3)ccc2F)[C@H]2COCC[C@H]2O1 [Compound I-107] | 53.7 nM
15 | C[C@H]1COC[C@H]2[C@@H]1OC(N)=N[C@]2(CF)c1cc(NC(=O)c2cnc(OCF)cn2)ccc1F [Compound I-074] | 4.3 nM
16 | NC1=N[C@](CF)(c2cc(NC(=O)c3ncc(C(F)(F)F)cc3Cl)ccc2F)[C@H]2COCC[C@H]2O1 [Compound I-108] | 20 nM
17 | C[C@@H]1C[C@H]2OC(N)=N[C@](CF)(c3cc(NC(=O)c4ncc(C(F)(F)F)cc4Cl)ccc3F)[C@H]2CO1 [Compound I-101] | 28.2 nM
18 | Cc1cc(C(F)(F)F)cnc1C(=O)Nc1ccc(F)c([C@@]2(CF)N=C(N)O[C@@H]3C[C@@H](C)OC[C@@H]32)c1 [Compound I-100] | 16.6 nM
19 | C[C@@H]1COC[C@H]2[C@@H]1OC(N)=N[C@]2(CF)c1cc(NC(=O)c2cnc(OCF)cn2)ccc1F [Compound I-075] | 26 nM

The remaining molecules from weak to strong by IC50, led by results:

Row | IC50 | Structure (SMILES)
20 | 33.9 nM | NC1=N[C@](CF)(c2cc(NC(=O)c3cnc(C(F)(F)F)cn3)ccc2F)[C@H]2COCC[C@H]2O1 [Compound I-102]
21 | 21.9 nM | NC1=N[C@](CF)(c2cc(NC(=O)c3cnc(OCF)cn3)ccc2F)[C@H]2COC3(CC3)C[C@H]2O1 [II-1]
22 | 17.4 nM | C[C@@H]1C[C@H]2OC(N)=N[C@](CF)(c3cc(NC(=O)c4cnc(OCF)cn4)cc(F)c3F)[C@H]2CO1 [Compound I-061]
23 | 11.2 nM | COc1cnc(C(=O)Nc2ccc(Cl)c([C@@]3(CF)N=C(N)O[C@@H]4C[C@@H](C)OC[C@@H]43)c2)cn1 [Compound I-068]
24 | 10 nM | NC1=N[C@](CF)(c2cc(NC(=O)c3cnc(OCC4(F)CC4)cn3)ccc2F)[C@H]2COCC[C@H]2O1 [Compound I-086]
25 | 9.8 nM | NC1=N[C@](CF)(c2cc(NC(=O)c3ccc(OC(F)F)cn3)ccc2F)[C@H]2COCC[C@H]2O1 [Compound I-078]
26 | 8.1 nM | NC1=N[C@](CF)(c2cc(NC(=O)c3cnc(OCC(F)(F)F)cn3)ccc2F)[C@H]2COCC[C@H]2O1 [Compound I-077]

Biological target: recombinant BACE2 protein (Homo sapiens (Human), UniProt Q9Y5Z0)
Sequence (Q9Y5Z0 63-518): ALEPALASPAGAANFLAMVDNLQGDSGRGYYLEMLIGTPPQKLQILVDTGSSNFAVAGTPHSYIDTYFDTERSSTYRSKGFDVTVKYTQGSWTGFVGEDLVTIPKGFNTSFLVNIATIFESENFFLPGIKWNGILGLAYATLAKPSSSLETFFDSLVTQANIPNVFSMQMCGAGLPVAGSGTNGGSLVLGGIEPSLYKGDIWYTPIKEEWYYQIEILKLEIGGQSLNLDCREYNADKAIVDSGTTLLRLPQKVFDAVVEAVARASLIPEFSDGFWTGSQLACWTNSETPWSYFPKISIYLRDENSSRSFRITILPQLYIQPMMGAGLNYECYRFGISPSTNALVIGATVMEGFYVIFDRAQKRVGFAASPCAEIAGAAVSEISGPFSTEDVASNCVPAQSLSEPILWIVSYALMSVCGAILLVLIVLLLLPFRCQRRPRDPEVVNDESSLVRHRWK
Test: BACE2 biochemical FRET based assay
Conditions: pH 5.0
From the text: (2) BACE2 Biochemical FRET Based Assay
as §1, with “assay” for “assay is an APP derived 13 amino acids peptide that”, “beta-secretase” for “beta-site secretase”, “the beta-secretase,” for “BACE1,”
Briefly in a 384-well format recombinant BACE2 protein in a final concentration of 0.4 μg/mL was incubated for 450 minutes at room temperature with 10 μM substrate in incubation buffer (final concentrations: 33.3 mM Citrate buffer pH 5.0, 0.033% PEG, 2% DMSO) in the absence or presence of compound. Next the amount of proteolysis was directly measured by fluorescence measurement at T=0 and T=450 (excitation at 320 nm and emission at 405 nm). Results were expressed in RFU (Relative Fluorescence Units), as difference between T450 and TO.
as §2, §3, §4, §5

Row | Structure (SMILES) | IC50
27 | NC1=N[C@](CF)(c2cc(NC(=O)c3cnc(C(F)(F)F)cn3)ccc2F)[C@H]2COCC[C@H]2O1 [Compound I-107] | 3390 nM
28 | C[C@H]1COC[C@H]2[C@@H]1OC(N)=N[C@]2(CF)c1cc(NC(=O)c2cnc(OCF)cn2)ccc1F [Compound I-074] | 155 nM
29 | NC1=N[C@](CF)(c2cc(NC(=O)c3ncc(C(F)(F)F)cc3Cl)ccc2F)[C@H]2COCC[C@H]2O1 [Compound I-108] | 200 nM
30 | C[C@@H]1C[C@H]2OC(N)=N[C@](CF)(c3cc(NC(=O)c4ncc(C(F)(F)F)cc4Cl)ccc3F)[C@H]2CO1 [Compound I-101] | 398 nM
31 | Cc1cc(C(F)(F)F)cnc1C(=O)Nc1ccc(F)c([C@@]2(CF)N=C(N)O[C@@H]3C[C@@H](C)OC[C@@H]32)c1 [Compound I-100] | 257 nM
32 | C[C@@H]1COC[C@H]2[C@@H]1OC(N)=N[C@]2(CF)c1cc(NC(=O)c2cnc(OCF)cn2)ccc1F [Compound I-075] | 724 nM

Second part, the molecule after the results:

Row | IC50 | Structure (SMILES)
33 | 977 nM | NC1=N[C@](CF)(c2cc(NC(=O)c3cnc(C(F)(F)F)cn3)ccc2F)[C@H]2COCC[C@H]2O1 [Compound I-102]
34 | 977 nM | NC1=N[C@](CF)(c2cc(NC(=O)c3cnc(OCF)cn3)ccc2F)[C@H]2COC3(CC3)C[C@H]2O1 [II-1]
35 | 933 nM | C[C@@H]1C[C@H]2OC(N)=N[C@](CF)(c3cc(NC(=O)c4cnc(OCF)cn4)cc(F)c3F)[C@H]2CO1 [Compound I-061]
36 | 275 nM | COc1cnc(C(=O)Nc2ccc(Cl)c([C@@]3(CF)N=C(N)O[C@@H]4C[C@@H](C)OC[C@@H]43)c2)cn1 [Compound I-068]
37 | 537 nM | NC1=N[C@](CF)(c2cc(NC(=O)c3cnc(OCC4(F)CC4)cn3)ccc2F)[C@H]2COCC[C@H]2O1 [Compound I-086]
38 | 245 nM | NC1=N[C@](CF)(c2cc(NC(=O)c3ccc(OC(F)F)cn3)ccc2F)[C@H]2COCC[C@H]2O1 [Compound I-078]
39 | 1820 nM | NC1=N[C@](CF)(c2cc(NC(=O)c3cnc(OCC(F)(F)F)cn3)ccc2F)[C@H]2COCC[C@H]2O1 [Compound I-077]
